# Laboratory results reported in US12459922B2 (Gilead Sciences, Inc., priority 2022, dated 2025).
# Tested on: endogenous cellular STAT1 (phosphorylated at Tyr701) in NCI-H1373 cells
# Assay: Phospho-STAT1 (Tyr701) LANCE Ultra TR-FRET Detection Assay
# Type: cell-based
# Settings: Homo sapiens, NCI-H1373, 48 h, phospho-STAT1 (Tyr701) induction, read-out: NH1373 pSTAT1 EC50
row,EC50,Structure (SMILES)
1,55.8 nM,"C[C@@H](CCCn1ccc2cc(-c3ncnc(N)n3)c(F)cc2c1=O)Nc1cn[nH]c(=O)c1C(F)(F)F [Example 365, (S)-6-(4-amino-1,3,5-triazin-2-yl)-7-fluoro-2-(4-((6-oxo-5-(trifluoromethyl)-1,6-dihydropyridazin-4-yl)amino)pentyl)isoquinolin-1(2H)-one]"
2,92.5 nM,"Cc1nc(N)nc(-c2cc3ccn(CCC[C@H](C)Nc4cn[nH]c(=O)c4C(F)(F)F)c(=O)c3cc2F)n1 [Example 366, (S)-6-(4-amino-6-methyl-1,3,5-triazin-2-yl)-7-fluoro-2-(4-((6-oxo-5-(trifluoromethyl)-1,6-dihydropyridazin-4-yl)amino)pentyl)isoquinolin-1(2H)-one]"
3,51.1 nM,"C[C@@H](CCCn1cnc2cc(-c3ncc(OC(F)F)c(N)n3)c(F)cc2c1=O)Nc1cn[nH]c(=O)c1C(F)(F)F [Example 367, (S)-7-(4-amino-5-(difluoromethoxy)pyrimidin-2-yl)-6-fluoro-3-(4-((6-oxo-5-(trifluoromethyl)-1,6-dihydropyridazin-4-yl)amino)pentyl)quinazolin-4(3H)-one]"
4,7.35 nM,"Nc1nc(-c2cc3ccn(CCC[C@H](COC(F)F)Nc4cn[nH]c(=O)c4C(F)(F)F)c(=O)c3cc2F)ncc1OC(F)F [Example 369, (R)-6-(4-amino-5-(difluoromethoxy)pyrimidin-2-yl)-2-(5-(difluoromethoxy)-4-((6-oxo-5-(trifluoromethyl)-1,6-dihydropyridazin-4-yl)amino)pentyl)-7-fluoroisoquinolin-1(2H)-one]"
5,8.33 nM,"COc1cnc(-c2cc3ccn(CCC[C@H](COC(F)F)Nc4cn[nH]c(=O)c4C(F)(F)F)c(=O)c3cc2F)nc1N [Example 370, (R)-6-(4-amino-5-methoxypyrimidin-2-yl)-2-(5-(difluoromethoxy)-4-((6-oxo-5-(trifluoromethyl)-1,6-dihydropyridazin-4-yl)amino)pentyl)-7-fluoroisoquinolin-1(2H)-one]"
6,6.78 nM,"O=c1[nH]ncc(N[C@H](CCCn2ccc3cc(-c4cnc(OC(F)F)cn4)c(F)cc3c2=O)COC(F)F)c1C(F)(F)F [Example 371, (R)-2-(5-(difluoromethoxy)-4-((6-oxo-5-(trifluoromethyl)-1,6-dihydropyridazin-4-yl)amino)pentyl)-6-(5-(difluoromethoxy)pyrazin-2-yl)-7-fluoroisoquinolin-1(2H)-one]"
7,7.13 nM,"O=c1[nH]ncc(N[C@H](CCCn2cnc3cc(-c4cnc(C(F)F)cn4)c(F)cc3c2=O)COC(F)F)c1C(F)(F)F [Example 372, (R)-3-(5-(difluoromethoxy)-4-((6-oxo-5-(trifluoromethyl)-1,6-dihydropyridazin-4-yl)amino)pentyl)-7-(5-(difluoromethyl)pyrazin-2-yl)-6-fluoroquinazolin-4(3H)-one]"
8,16.6 nM,"O=c1[nH]ncc(N[C@H](CCCn2cnc3cc(-c4cnc(OC(F)F)cn4)c(F)cc3c2=O)COC(F)F)c1C(F)(F)F [Example 373, (R)-3-(5-(difluoromethoxy)-4-((6-oxo-5-(trifluoromethyl)-1,6-dihydropyridazin-4-yl)amino)pentyl)-7-(5-(difluoromethoxy)pyrazin-2-yl)-6-fluoroquinazolin-4(3H)-one]"
9,44.8 nM,"Nc1nc(-c2cc3ncn(CCC[C@H](COC(F)F)Nc4cn[nH]c(=O)c4C(F)(F)F)c(=O)c3cc2F)ncc1OC(F)F [Example 374, (R)-7-(4-amino-5-(difluoromethoxy)pyrimidin-2-yl)-3-(5-(difluoromethoxy)-4-((6-oxo-5-(trifluoromethyl)-1,6-dihydropyridazin-4-yl)amino)pentyl)-6-fluoroquinazolin-4(3H)-one]"
10,3.84 nM,"O=c1[nH]ncc(N[C@H](CCCn2ccc3cc(-c4ncc(C(F)(F)F)cn4)c(F)c(F)c3c2=O)COC(F)F)c1C(F)(F)F [Example 375, (R)-2-(5-(difluoromethoxy)-4-((6-oxo-5-(trifluoromethyl)-1,6-dihydropyridazin-4-yl)amino)pentyl)-7,8-difluoro-6-(5-(trifluoromethyl)pyrimidin-2-yl)isoquinolin-1(2H)-one]"
11,2.17 nM,"O=c1[nH]ncc(N[C@H](CCCn2cnc3cc(-c4ncc(C(F)(F)F)cn4)c(F)cc3c2=O)COC(F)F)c1C(F)(F)F [Example 382, (R)-3-(5-(difluoromethoxy)-4-((6-oxo-5-(trifluoromethyl)-1,6-dihydropyridazin-4-yl)amino)pentyl)-6-fluoro-7-(5-(trifluoromethyl)pyrimidin-2-yl)quinazolin-4(3H)-one]"
12,18.5 nM,"Nc1nc(-c2cc3ncn(CCC[C@H](COC(F)F)Nc4cn[nH]c(=O)c4C(F)(F)F)c(=O)c3cc2F)ncc1C(F)F [Example 383, (R)-7-(4-amino-5-(difluoromethyl)pyrimidin-2-yl)-3-(5-(difluoromethoxy)-4-((6-oxo-5-(trifluoromethyl)-1,6-dihydropyridazin-4-yl)amino)pentyl)-6-fluoroquinazolin-4(3H)-one]"
13,2.41 nM,"O=c1[nH]ncc(N[C@H](CCCn2cnc3cc(-c4ncc(C(F)F)cn4)c(F)cc3c2=O)COC(F)F)c1C(F)(F)F [Example 384, (R)-3-(5-(difluoromethoxy)-4-((6-oxo-5-(trifluoromethyl)-1,6-dihydropyridazin-4-yl)amino)pentyl)-7-(5-(difluoromethyl)pyrimidin-2-yl)-6-fluoroquinazolin-4(3H)-one]"
14,13.3 nM,"Nc1nc(-c2cc3ncn(CCC[C@H](COC(F)F)Nc4cn[nH]c(=O)c4C(F)(F)F)c(=O)c3cc2F)ncc1C(F)(F)F [Example 385, (R)-7-(4-amino-5-(trifluoromethyl)pyrimidin-2-yl)-3-(5-(difluoromethoxy)-4-((6-oxo-5-(trifluoromethyl)-1,6-dihydropyridazin-4-yl)amino)pentyl)-6-fluoroquinazolin-4(3H)-one]"
15,2.96 nM,"O=c1[nH]ncc(N[C@H](CCCn2ccc3nc(-c4ccc(C(F)(F)F)cn4)ccc3c2=O)COC(F)F)c1C(F)(F)F [Example 386, (R)-6-(5-(difluoromethoxy)-4-((6-oxo-5-(trifluoromethyl)-1,6-dihydropyridazin-4-yl)amino)pentyl)-2-(5-(trifluoromethyl)pyridin-2-yl)-1,6-naphthyridin-5(6H)-one]"
16,10.4 nM,"Nc1nc(-c2cc3ccn(CCC[C@H](COC(F)F)Nc4cn[nH]c(=O)c4C(F)(F)F)c(=O)c3c(F)c2F)ncc1C(F)F [Example 387, (R)-6-(4-amino-5-(difluoromethyl)pyrimidin-2-yl)-2-(5-(difluoromethoxy)-4-((6-oxo-5-(trifluoromethyl)-1,6-dihydropyridazin-4-yl)amino)pentyl)-7,8-difluoroisoquinolin-1(2H)-one]"
17,2.74 nM,"O=c1[nH]ncc(N[C@H](CCCn2ccc3cc(-c4ncc(C(F)F)cn4)c(F)c(F)c3c2=O)COC(F)F)c1C(F)(F)F [Example 388, (R)-2-(5-(difluoromethoxy)-4-((6-oxo-5-(trifluoromethyl)-1,6-dihydropyridazin-4-yl)amino)pentyl)-6-(5-(difluoromethyl)pyrimidin-2-yl)-7,8-difluoroisoquinolin-1(2H)-one]"
18,5.14 nM,"Nc1nc(-c2cc3ccn(CCC[C@H](COC(F)F)Nc4cn[nH]c(=O)c4C(F)(F)F)c(=O)c3c(F)c2F)ncc1C(F)(F)F [Example 389, (R)-6-(4-amino-5-(trifluoromethyl)pyrimidin-2-yl)-2-(5-(difluoromethoxy)-4-((6-oxo-5-(trifluoromethyl)-1,6-dihydropyridazin-4-yl)amino)pentyl)-7,8-difluoroisoquinolin-1(2H)-one]"
19,11.7 nM,"Nc1nc(-c2cc3ncn(CCC[C@H](COC(F)F)Nc4cn[nH]c(=O)c4C(F)(F)F)c(=O)c3cc2F)ccc1C(F)(F)F [Example 390, (R)-7-(6-amino-5-(trifluoromethyl)pyridin-2-yl)-3-(5-(difluoromethoxy)-4-((6-oxo-5-(trifluoromethyl)-1,6-dihydropyridazin-4-yl)amino)pentyl)-6-fluoroquinazolin-4(3H)-one]"
20,6.3 nM,"Nc1nc(-c2cc3ccn(CCC[C@H](COC(F)F)Nc4cn[nH]c(=O)c4C(F)(F)F)c(=O)c3c(F)c2F)ncc1Cl [Example 391, (R)-6-(4-amino-5-chloropyrimidin-2-yl)-2-(5-(difluoromethoxy)-4-((6-oxo-5-(trifluoromethyl)-1,6-dihydropyridazin-4-yl)amino)pentyl)-7,8-difluoroisoquinolin-1(2H)-one]"
21,1.5 nM,"O=c1[nH]ncc(N[C@H](CCCn2ccc3cc(-c4ncc(Cl)cn4)c(F)c(F)c3c2=O)COC(F)F)c1C(F)(F)F [Example 392, (R)-6-(5-chloropyrimidin-2-yl)-2-(5-(difluoromethoxy)-4-((6-oxo-5-(trifluoromethyl)-1,6-dihydropyridazin-4-yl)amino)pentyl)-7,8-difluoroisoquinolin-1(2H)-one]"
22,22.7 nM,"COc1cnc(-c2cc3ncn(CCC[C@H](COC(F)F)Nc4cn[nH]c(=O)c4C(F)(F)F)c(=O)c3cc2F)nc1N [Example 393, (R)-7-(4-amino-5-methoxypyrimidin-2-yl)-3-(5-(difluoromethoxy)-4-((6-oxo-5-(trifluoromethyl)-1,6-dihydropyridazin-4-yl)amino)pentyl)-6-fluoroquinazolin-4(3H)-one]"
23,1.22 nM,"O=c1[nH]ncc(N[C@H](CCCn2cnc3cc(-c4ncc(Cl)cn4)c(F)cc3c2=O)COC(F)F)c1C(F)(F)F [Example 394, (R)-7-(5-chloropyrimidin-2-yl)-3-(5-(difluoromethoxy)-4-((6-oxo-5-(trifluoromethyl)-1,6-dihydropyridazin-4-yl)amino)pentyl)-6-fluoroquinazolin-4(3H)-one]"
24,30.4 nM,"Nc1nc(-c2cc3ncn(CCC[C@H](COC(F)F)Nc4cn[nH]c(=O)c4C(F)(F)F)c(=O)c3cc2F)ccc1C(F)F [Example 395, (R)-7-(6-amino-5-(difluoromethyl)pyridin-2-yl)-3-(5-(difluoromethoxy)-4-((6-oxo-5-(trifluoromethyl)-1,6-dihydropyridazin-4-yl)amino)pentyl)-6-fluoroquinazolin-4(3H)-one]"
